Source: US10093683B2, “Factor XIa inhibitors” (Merck Sharp & Dohme Corp., priority 2014, dated 2018)
Read-outs that look alike come from different tables or passages of the source.

Legend:
Human plasma kallikrein = Human plasma kallikrein (Homo sapiens (Human), UniProt P03952); experiment: Kallikrein Assay; assay type: biochemical; details: purified Human plasma kallikrein 0.5 nM, Acetyl-K-P-R-AFC, pH 7.4; Ki from IC50 by Cheng Prusoff
Method in brief: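 Purified human plasma kallikrein (0.5 nM final) with Acetyl-K-P-R-AFC substrate ([…]) in 50 mM HEPES pH 7.4, 150 mM NaCl, 5 mM CaCl2, 0.1% PEG 8000, after enzyme-inhibitor equilibration. Fluorescence (405 ex/510 em) under linear conditions; IC50 from four-parameter fit, converted to Ki by Cheng-Prusoff.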

human Factor XIa = human Factor XIa (Homo sapiens (Human), UniProt P03951); experiment: Factor XIa Assay; assay type: biochemical; details: read-out: FXIa Ki
Method in brief: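 Purified human FXIa (40 pM final) hydrolysing fluorogenic Z-Gly-Pro-Arg-AFC (100 μM) in 50 mM HEPES pH 7.4, 150 mM NaCl, 5 mM CaCl2, 0.1% PEG 8000, at room temperature or 37° C. Initial velocities measured after enzyme–inhibitor equilibration; Ki from Vo/Vi versus [I], assuming competitive inhibition.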

[1] = purified human Factor XIa 40 pM, Z-Gly-Pro-Arg-AFC 100 μM, pH 7.4

human Factor XIa, sequence (P03951 388-625): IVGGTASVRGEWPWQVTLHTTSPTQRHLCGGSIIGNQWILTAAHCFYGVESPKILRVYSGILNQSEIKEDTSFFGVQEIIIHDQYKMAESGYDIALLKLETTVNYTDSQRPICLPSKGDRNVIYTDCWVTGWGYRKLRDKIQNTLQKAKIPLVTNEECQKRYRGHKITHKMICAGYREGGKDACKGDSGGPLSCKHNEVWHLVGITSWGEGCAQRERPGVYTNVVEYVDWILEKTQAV
human Factor XIa, sequence (P03951 19-387 partner): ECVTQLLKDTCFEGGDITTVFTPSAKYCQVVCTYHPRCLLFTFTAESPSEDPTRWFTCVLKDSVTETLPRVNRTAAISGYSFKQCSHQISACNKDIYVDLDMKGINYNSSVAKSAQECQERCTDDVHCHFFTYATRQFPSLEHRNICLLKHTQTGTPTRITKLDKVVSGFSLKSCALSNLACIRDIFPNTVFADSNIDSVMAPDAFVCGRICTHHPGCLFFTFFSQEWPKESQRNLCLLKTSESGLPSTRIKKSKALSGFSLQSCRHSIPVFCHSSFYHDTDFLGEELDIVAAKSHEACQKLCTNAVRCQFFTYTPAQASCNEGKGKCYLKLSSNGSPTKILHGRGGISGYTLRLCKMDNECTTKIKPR
Human plasma kallikrein, sequence (P03952 391-638): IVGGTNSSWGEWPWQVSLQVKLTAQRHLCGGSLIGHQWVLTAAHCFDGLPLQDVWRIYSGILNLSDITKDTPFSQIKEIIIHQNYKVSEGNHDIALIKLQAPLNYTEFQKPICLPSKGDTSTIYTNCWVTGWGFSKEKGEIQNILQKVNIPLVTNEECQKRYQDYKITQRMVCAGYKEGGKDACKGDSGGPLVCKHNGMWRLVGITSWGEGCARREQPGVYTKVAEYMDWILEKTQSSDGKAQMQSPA
Human plasma kallikrein, sequence (P03952 20-390 partner): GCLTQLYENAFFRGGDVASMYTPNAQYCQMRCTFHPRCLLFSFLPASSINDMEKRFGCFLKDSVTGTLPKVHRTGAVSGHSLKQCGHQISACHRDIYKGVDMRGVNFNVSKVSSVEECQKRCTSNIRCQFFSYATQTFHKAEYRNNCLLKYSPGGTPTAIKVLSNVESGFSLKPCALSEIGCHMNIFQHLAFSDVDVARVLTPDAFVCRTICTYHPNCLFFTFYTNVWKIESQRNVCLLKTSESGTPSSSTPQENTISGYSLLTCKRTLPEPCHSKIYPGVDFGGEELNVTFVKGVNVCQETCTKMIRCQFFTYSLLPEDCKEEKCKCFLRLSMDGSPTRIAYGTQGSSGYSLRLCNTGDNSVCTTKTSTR

Row | Structure (SMILES) | Ki (Human plasma kallikrein) | Ki (human Factor XIa; [1]) | Ki (human Factor XIa)
1 | COC(=O)Nc1ccc(C(=O)N[C@@H](CC(=O)N2CCCCC2)C(=O)N2CC[C@@]3(C2)OC(=O)Nc2ccc(Cl)cc23)cc1 [Example 87, methyl (4-(((S)-1-((R)-6-chloro-2-oxo-1,2-dihydrospiro[benzo[d][1,3]oxazine-4,3′-pyrrolidin]-1′-yl)-1,4-dioxo-4-(piperidin-1-yl)butan-2-yl)carbamoyl)phenyl)carbamate] | 11 nM | 3.65 nM | 
2 | COC(=O)Nc1ccc(C(=O)N[C@@H](CC(=O)N2CC3CCCC32)C(=O)N2CCC[C@@]3(C2)OC(=O)Nc2ccc(Cl)cc23)cc1 (stereo partly drawn) [Example 94, methyl (4-(((2S)-4-(6-azabicyclo[3.2.0]heptan-6-yl)-1-((R)-6-chloro-2-oxo-1,2-dihydrospiro[benzo[d][1,3]oxazine-4,3′-piperidin]-1′-yl)-1,4-dioxobutan-2-yl)carbamoyl)phenyl)carbamate] | 1.42 nM | 5.47 nM | 
3 | COC(=O)Nc1ccc(C(=O)N[C@@H](CC(=O)N2CC[C@H]2CO)C(=O)N2CCC[C@@]3(C2)OC(=O)Nc2ccc(Cl)cc23)cc1 [Example 95, methyl (4-(((S)-1-((R)-6-chloro-2-oxo-1,2-dihydrospiro[benzo[d][1,3]oxazine-4,3′-piperidin]-1′-yl)-4-((S)-2-(hydroxymethyl)azetidin-1-yl)-1,4-dioxobutan-2-yl)carbamoyl)phenyl)carbamate] | 1.81 nM | 3.59 nM | 
4 | COC(=O)Nc1ccc(C(=O)N[C@@H](CC(=O)N2CC(OC)C2)C(=O)N2CCC[C@@]3(C2)OC(=O)Nc2ccc(Cl)cc23)cc1 [Example 97, methyl (4-(((S)-1-((R)-6-chloro-2-oxo-1,2-dihydrospiro[benzo[d][1,3]oxazine-4,3′-piperidin]-1′-yl)-4-(3-methoxyazetidin-1-yl)-1,4-dioxobutan-2-yl)carbamoyl)phenyl)carbamate] | 15.3 nM | 51.1 nM | 
5 | COC(=O)Nc1ccc(C(=O)N[C@@H](CC(=O)NCc2ccnn2C)C(=O)N2CCC[C@@]3(C2)OC(=O)Nc2ccc(Cl)cc23)cc1 [Example 98, methyl (4-(((S)-1-((R)-6-chloro-2-oxo-1,2-dihydrospiro[benzo[d][1,3]oxazine-4,3′-piperidin]-1′-yl)-4-(((1-methyl-1H-pyrazol-5-yl)methyl)amino)-1,4-dioxobutan-2-yl)carbamoyl)phenyl)carbamate] | 25.4 nM | 38.3 nM | 
6 | COC(=O)Nc1ccc(C(=O)N[C@@H](CC(=O)NCC2CC2)C(=O)N2CCC[C@@]3(C2)OC(=O)Nc2ccc(Cl)cc23)cc1 [Example 99, methyl (4-(((S)-1-((R)-6-chloro-2-oxo-1,2-dihydrospiro[benzo[d][1,3]oxazine-4,3′-piperidin]-1′-yl)-4-((cyclopropylmethyl)amino)-1,4-dioxobutan-2-yl)carbamoyl)phenyl)carbamate] | 17.6 nM | 40.4 nM | 
7 | COC(=O)Nc1ccc(C(=O)N[C@@H](CC(=O)N2CC(O)(C3CC3)C2)C(=O)N2CCC[C@@]3(C2)OC(=O)Nc2ccc(Cl)cc23)cc1 [Example 100, methyl (4-(((S)-1-((R)-6-chloro-2-oxo-1,2-dihydrospiro[benzo[d][1,3]oxazine-4,3′-piperidin]-1′-yl)-4-(3-cyclopropyl-3-hydroxyazetidin-1-yl)-1,4-dioxobutan-2-yl)carbamoyl)phenyl)carbamate] | 19.7 nM | 39.9 nM | 
8 | COC(=O)Nc1ccc(C(=O)N[C@@H](CC(=O)N2CC[C@@H](OC)C2)C(=O)N2CCC[C@@]3(C2)OC(=O)Nc2ccc(Cl)cc23)cc1 [Example 101, methyl (4-(((S)-1-((R)-6-chloro-2-oxo-1,2-dihydrospiro[benzo[d][1,3]oxazine-4,3′-piperidin]-1′-yl)-4-((R)-3-methoxypyrrolidin-1-yl)-1,4-dioxobutan-2-yl)carbamoyl)phenyl)carbamate] | 10.3 nM | 36.4 nM | 
9 | COC(=O)Nc1ccc(C(=O)N[C@@H](CC(=O)N2CC[C@@H]2C)C(=O)N2CCC[C@@]3(C2)OC(=O)Nc2ccc(Cl)cc23)cc1 [Example 102, methyl (4-(((S)-1-((R)-6-chloro-2-oxo-1,2-dihydrospiro[benzo[d][1,3]oxazine-4,3′-piperidin]-1′-yl)-4-((S)-2-methylazetidin-1-yl)-1,4-dioxobutan-2-yl)carbamoyl)phenyl)carbamate] | < 1.36 nM | 0.77 nM | 
10 | COC(=O)Nc1ccc(C(=O)N[C@@H](CC(F)F)C(=O)N2CCC[C@@]3(C2)OC(=O)Nc2ccc(Cl)c(F)c23)cc1 [Example 104, methyl (4-(((S)-1-((R)-6-chloro-5-fluoro-2-oxo-1,2-dihydrospiro[benzo[d][1,3]oxazine-4,3′-piperidin]-1′-yl)-4,4-difluoro-1-oxobutan-2-yl)carbamoyl)phenyl)carbamate] | 5.28 nM | 15 nM | 
11 | COC(=O)Nc1ccc(C(=O)N[C@@H](CCF)C(=O)N2CCC[C@@]3(C2)OC(=O)Nc2ccc(Cl)c(F)c23)cc1 [Example 105, methyl (4-(((S)-1-((R)-6-chloro-5-fluoro-2-oxo-1,2-dihydrospiro[benzo[d][1,3]oxazine-4,3′-piperidin]-1′-yl)-4-fluoro-1-oxobutan-2-yl)carbamoyl)phenyl)carbamate] | 3.04 nM | 9.99 nM | 
12 | COC(=O)Nc1ccc(C(=O)N[C@@H](CC(C)O)C(=O)N2CCC3(C2)OC(=O)Nc2ccc(Cl)cc23)cc1 (stereo partly drawn) [Example 110, methyl (4-(((2S)-1-((R)-6-chloro-2-oxo-1,2-dihydrospiro[benzo[d][1,3]oxazine-4,3′-pyrrolidin]-1′-yl)-4-hydroxy-1-oxopentan-2-yl)carbamoyl)phenyl)carbamate] | 147 nM | 52 nM | 
13 | COC(=O)Nc1ccc(C(=O)N[C@@H](CC(C)(C)O)C(=O)N2CC[C@@]3(C2)OC(=O)Nc2ccc(Cl)cc23)cc1 [Example 111, methyl (4-(((S)-1-((R)-6-chloro-2-oxo-1,2-dihydrospiro[benzo[d][1,3]oxazine-4,3′-pyrrolidin]-1′-yl)-4-hydroxy-4-methyl-1-oxopentan-2-yl)carbamoyl)phenyl)carbamate] | 76 nM | 12 nM | 
14 | COC(=O)Nc1ccc(C(=O)N[C@@H](CC(C)(C)OC)C(=O)N2CCC[C@@]3(C2)OC(=O)Nc2ccc(Cl)c(F)c23)cc1 [Example 119, methyl (4-(((2S)-1-(6-chloro-5-fluoro-2-oxo-1,2-dihydrospiro[benzo[d][1,3]oxazine-4,3′-piperidin]-1′-yl)-4-methoxy-4-methyl-1-oxopentan-2-yl)carbamoyl)phenyl)carbamate] | 4.92 nM | 10.2 nM | 
15 | O=C1Nc2ccc(Cl)c(F)c2[C@@]2(CCCN(C(=O)C(Cc3ccccc3)c3ncc(-c4ccc(C(=O)O)s4)[nH]3)C2)O1 (stereo partly drawn) [Example 123, 5-(2-(1-((R)-6-chloro-5-fluoro-2-oxo-1,2-dihydrospiro[benzo[d][1,3]oxazine-4,3′-piperidin]-1′-yl)-1-oxo-3-phenylpropan-2-yl)-1H-imidazol-5-yl)thiophene-2-carboxylic acid] | 4.65 nM | 15.1 nM | 
16 | COC(=O)Nc1cccc(C(=O)N[C@@H](Cc2ccccc2)C(=O)N2CCC3(C2)OC(=O)Nc2ccc(Cl)cc23)c1 (stereo partly drawn) [Example 143, methyl (3-(((2S)-1-(6-chloro-2-oxo-1,2-dihydrospiro[benzo[d][1,3]oxazine-4,3′-pyrrolidin]-1′-yl)-1-oxo-3-phenylpropan-2-yl)carbamoyl)phenyl)carbamate] | 2.63 nM |  | 1250 nM
